Experimental data taken from US20110065796A1 (SHIRE LLC, priority 2009, published 2011).

Key:
[1] = Prodrug stability in simulated gastric fluid; conditions: 37° C., pH 1.1, HPLC
Procedure: (§1) The remaining concentrations of the prodrugs were then assayed by H PLC.

[2] = Prodrug stability in simulated intestinal fluid; conditions: 37° C., pH 6.8, HPLC
Procedure: as §1

% prodrug remaining following incubation for 1 h in simulated gastric fluid pH 1.1 [1] [%] | % prodrug remaining following incubation for 2 h in simulated intestinal fluid pH 6.8 [2] [%] | SMILES
97 | 84 | O=C(O)CC1N=C(NC(=O)Cc2c(Cl)cccc2Cl)NC1=O (centres unmarked) [Compound 4, Guanfacine Fumaryl Cyclic Adduct]
81 | 98 | N=C(NC(=O)CC[C@H](NC(=O)[C@@H]1CCC(=O)N1)C(=O)O)NC(=O)Cc1c(Cl)cccc1Cl [Compound 6, Guanfacine ((S)-γ-Glutamate-(S)-Pyroglutamic acid) Amide]
96 | 100 | N=C(NC(=O)Cc1c(Cl)cccc1Cl)NC(=O)NC(C(=O)O)c1ccccc1 (centres unmarked) [Compound 8, Guanfacine Phenylglycine Urea]
82 | 112 | N=C(NC(=O)CCNC(=O)[C@@H]1CCC(=O)N1)NC(=O)Cc1c(Cl)cccc1Cl [Compound 10, Guanfacine (β-Alanine-(S)-Pyroglutamic acid) Amide]
48 | 87 | CN1CC(=O)N=C1NC(=O)Cc1c(Cl)cccc1Cl [Compound 12, Guanfacine-Sarcosine Cyclic Adduct]
70 | 108 | N=C(NC(=O)Cc1c(Cl)cccc1Cl)NC(=O)O[C@@H]1CN[C@H](C(=O)O)C1 [Compound 14, Guanfacine (S,S)-4-Hydroxyproline Carbamate]
83 | 112 | CC(=O)N[C@@H](COC(=O)NC(=N)NC(=O)Cc1c(Cl)cccc1Cl)C(=O)O [Compound 15, Guanfacine Acetyl-(S)-Serine Carbamate]
78 | 95 | N=C(NC(=O)Cc1c(Cl)cccc1Cl)NC(=O)OC[C@H](NC(=O)[C@@H]1CCC(=O)N1)C(=O)O [Compound 16, Guanfacine ((S)-Serine-(S)-Pyroglutamic acid) Carbamate]
74 | 108 | CC(C)[C@@H](N)C(=O)N[C@@H](COC(=O)NC(=N)NC(=O)Cc1c(Cl)cccc1Cl)C(=O)O [Compound 18, Guanfacine ((S)-Serine-(R)-Valine) Carbamate]
92 | 102 | C[C@@H](OC(=O)NC(=N)NC(=O)Cc1c(Cl)cccc1Cl)[C@H](NC(=O)[C@@H]1CCC(=O)N1)C(=O)O [Compound 19, Guanfacine ((S)-Threonine-(S)-Pyroglutamic acid) Carbamate]
79 | 100 | CC(C)[C@H](N)C(=O)N[C@H](C(=O)O)[C@@H](C)OC(=O)NC(=N)NC(=O)Cc1c(Cl)cccc1Cl [Compound 20, Guanfacine ((S)-Threonine-(S)-Valine) Carbamate]
83 | 103 | CC(C)[C@@H](N)C(=O)N[C@H](C(=O)O)[C@@H](C)OC(=O)NC(=N)NC(=O)Cc1c(Cl)cccc1Cl [Compound 21, Guanfacine ((S)-Threonine-(R)-Valine) Carbamate]
106 | 85 | CC(C)[C@@H](N)C(=O)NCCCC(=O)NC(=N)NC(=O)Cc1c(Cl)cccc1Cl [Compound 22, Guanfacine (GABA-(R)-Valine) Amide]
98 | 78 | N=C(NC(=O)CCCNC(=O)[C@@H]1CCC(=O)N1)NC(=O)Cc1c(Cl)cccc1Cl [Compound 23, Guanfacine (GABA-(S)-Pyroglutamic acid) Amide]
78 | 111 | CC(C)[C@@H](N)C(=O)NCCOC(=O)NC(=N)NC(=O)Cc1c(Cl)cccc1Cl [Compound 27, Guanfacine (Ethanolamine-(R)-Valine) Carbamate]
103 | 106 | N=C(NC(=O)Cc1c(Cl)cccc1Cl)NC(=O)OCCNC(=O)[C@@H]1CCC(=O)N1 [Compound 28, Guanfacine (Ethanolamine-(S)-Pyroglutamic acid) Carbamate]
80 | 99 | CC(C)[C@H](NC(=O)COC(=O)NC(=N)NC(=O)Cc1c(Cl)cccc1Cl)C(=O)O [Compound 29, Guanfacine (Glycolyl-(S)-Valine) Carbamate]

% prodrug remaining following incubation for 1 h in simulated gastric fluid pH 1.1 [1] [%] | % prodrug remaining following incubation for 2 h in simulated intestinal fluid pH 6.8 [2] [%] | SMILES
77 | 160 | CC(C)[C@@H](NC(=O)COC(=O)NC(=N)NC(=O)Cc1c(Cl)cccc1Cl)C(=O)O [Compound 30, Guanfacine (Glycolyl -(R)-Valine) Carbamate]
70 | 85 | CC(C)[C@@H](N)C(=O)N[C@H](CCC(=O)NC(=N)NC(=O)Cc1c(Cl)cccc1Cl)C(=O)O [Compound 31, Guanfacine ((R)-γ-Glutamate (R)-Valine) Amide]
93 | 84 | CC(C)[C@H](N)C(=O)N[C@H](CCC(=O)NC(=N)NC(=O)Cc1c(Cl)cccc1Cl)C(=O)O [Compound 32, Guanfacine ((R)-γ-Glutamate-(S)-Valine) Amide]
79 | 99 | CC(C)[C@H](NC(=O)CC(C)(C)CC(=O)NC(=N)NC(=O)Cc1c(Cl)cccc1Cl)C(=O)O [Compound 33, Guanfacine (3,3-dimethylglutaryl-(S)-Valine) Amide]
51 | 91 | O=C1CCN=C(NC(=O)Cc2c(Cl)cccc2Cl)N1 [Compound 34, Guanfacine-β-Alanine Cyclic Adduct]
83 | 108 | CC(C)[C@@H]1N=C(NC(=O)Cc2c(Cl)cccc2Cl)NC1=O [Compound 35, Guanfacine-(S)-Valine Cyclic Adduct]
83 | 101 | NCCCC[C@@H]1N=C(NC(=O)Cc2c(Cl)cccc2Cl)NC1=O [Compound 36, Guanfacine-(S)-Lysine Cyclic Adduct]
70 | 87 | NC(=O)CC[C@@H]1N=C(NC(=O)Cc2c(Cl)cccc2Cl)NC1=O [Compound 38, Guanfacine-(S)-Glutamine Cyclic Adduct]
89 | 104 | C[C@@H]1N=C(NC(=O)Cc2c(Cl)cccc2Cl)NC1=O [Compound 39, Guanfacine-(S)-AlanineCyclic Adduct]
70 | 83 | CC(C)C[C@@H](N)C(=O)N[C@@H](CCC(=O)NC(=N)NC(=O)Cc1c(Cl)cccc1Cl)C(=O)O [Compound 42, Guanfacine ((S)-γ-Glutamate-(R)-Leucine) Amide]
62 | 85 | N=C(NC(=O)CC[C@H](NC(=O)[C@H](N)CCCCN)C(=O)O)NC(=O)Cc1c(Cl)cccc1Cl [Compound 43, Guanfacine ((S)-γ-Glutamate-(R)-Lysine) Amide]
75 | 85 | CSCC[C@@H](N)C(=O)N[C@@H](CCC(=O)NC(=N)NC(=O)Cc1c(Cl)cccc1Cl)C(=O)O [Compound 44, Guanfacine ((S)-γ-Glutamate-(R)-Methionine) Amide]
74 | 91 | N=C(NC(=O)CC[C@H](NC(=O)[C@H](N)Cc1ccc(O)cc1)C(=O)O)NC(=O)Cc1c(Cl)cccc1Cl [Compound 45, Guanfacine ((S)-γ-Glutamate-(R)-Tyrosine) Amide]
61 | 81 | N=C(NC(=O)CC[C@H](NC(=O)[C@H](N)CCC(N)=O)C(=O)O)NC(=O)Cc1c(Cl)cccc1Cl [Compound 46, Guanfacine ((S)-γ-Glutamate-(R)-Glutamine) Amide]
72 | 89 | N=C(NC(=O)CC[C@H](NC(=O)[C@H](N)CO)C(=O)O)NC(=O)Cc1c(Cl)cccc1Cl [Compound 47, Guanfacine ((S)-γ-Glutamate-(R)-Serine) Amide]
87 | 101 | N=C(NC(=O)Cc1c(Cl)cccc1Cl)NC(=O)OCCNC(=O)CN [Compound 49, Guanfacine (Ethanolamine-Glycine) Carbamate]

SMILES | % prodrug remaining following incubation for 1 h in simulated gastric fluid pH 1.1 [1] [%] | % prodrug remaining following incubation for 2 h in simulated intestinal fluid pH 6.8 [2] [%]
N=C(NC(=O)Cc1c(Cl)cccc1Cl)NC(=O)Oc1ccc(C[C@H](N)C(=O)O)cc1 [Compound 13, Guanfacine (S)-Tyrosine Carbamate] | 74 | 81
